Measured values from PMC6323127 (Saudi Pharmaceutical Journal : SPJ, 2018).
In brackets after ≈: the same amount, converted by molar mass.

Tests used:
CYP1A2 [1] = molecular target: T1, CYP1A2 (Homo sapiens, UniProt P05177); experiment: in vitro; details: microsomes, pH 7.4
T1 sequence (P05177 1-516): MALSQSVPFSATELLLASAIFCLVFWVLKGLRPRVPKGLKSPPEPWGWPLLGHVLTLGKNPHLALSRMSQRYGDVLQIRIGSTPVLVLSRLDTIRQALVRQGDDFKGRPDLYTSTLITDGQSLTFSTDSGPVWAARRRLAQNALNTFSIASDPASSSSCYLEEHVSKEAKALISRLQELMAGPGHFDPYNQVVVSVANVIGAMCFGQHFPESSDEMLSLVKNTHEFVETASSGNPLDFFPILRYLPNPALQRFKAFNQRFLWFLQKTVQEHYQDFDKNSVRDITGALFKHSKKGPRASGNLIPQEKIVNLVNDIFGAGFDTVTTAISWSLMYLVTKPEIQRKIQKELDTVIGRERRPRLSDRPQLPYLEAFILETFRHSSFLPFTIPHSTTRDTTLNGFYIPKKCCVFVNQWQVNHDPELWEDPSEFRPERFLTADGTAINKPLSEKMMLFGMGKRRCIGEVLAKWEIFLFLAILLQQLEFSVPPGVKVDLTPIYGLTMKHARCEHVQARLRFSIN

CYP1A2 [2] = molecular target: T1, CYP1A2; details: for relative potency (AEM IC50)/(other anthraquinone IC50), CYP1A2-mediated caffeine demethylation: AEM as reference chemical; for inhibitor strength toward CYP1A2 activity (in words): human liver microsomes
CYP3A4 [3] = molecular target: T2, CYP3A4 (Homo sapiens, UniProt P08684); details: for relative potency (AEM IC50)/(other anthraquinone IC50), CYP3A4-mediated erythromycin demethylation: AEM as reference chemical; for inhibitor strength toward CYP3A4 activity (in words): human liver microsomes
T2 sequence (P08684 whole entry): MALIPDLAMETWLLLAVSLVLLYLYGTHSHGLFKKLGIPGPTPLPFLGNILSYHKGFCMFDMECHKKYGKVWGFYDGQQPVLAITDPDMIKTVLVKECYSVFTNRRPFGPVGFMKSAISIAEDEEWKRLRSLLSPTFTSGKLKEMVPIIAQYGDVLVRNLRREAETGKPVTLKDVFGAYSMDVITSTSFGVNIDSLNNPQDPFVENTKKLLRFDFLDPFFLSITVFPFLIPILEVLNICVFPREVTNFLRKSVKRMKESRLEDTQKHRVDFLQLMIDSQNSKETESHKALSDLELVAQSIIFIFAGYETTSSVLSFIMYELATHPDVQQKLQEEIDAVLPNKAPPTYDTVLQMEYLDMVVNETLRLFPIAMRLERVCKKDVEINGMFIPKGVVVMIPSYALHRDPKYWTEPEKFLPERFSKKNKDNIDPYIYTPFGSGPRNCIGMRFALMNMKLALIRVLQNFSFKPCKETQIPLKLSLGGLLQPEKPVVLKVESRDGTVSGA

CYP3A4 [4] = molecular target: T2, CYP3A4; experiment: biochemical
CYP1A2 [5] = molecular target: T1, CYP1A2; experiment: biochemical
CYP1A1/2 = details: in vitro; ref Ayrton et al., 1987; cited from earlier work

| Structure (SMILES) | IC50 (CYP1A2 [1]) | relative potency (AEM IC50)/(other anthraquinone IC50), CYP1A2-mediated caffeine demethylation (CYP1A2 [2]) | inhibitor strength toward CYP1A2 activity (in words) (CYP1A2 [2]) | relative potency (AEM IC50)/(other anthraquinone IC50), CYP3A4-mediated erythromycin demethylation (CYP3A4 [3]) | IC50 (CYP3A4 [4]) | IC50 (CYP1A2 [5]) | inhibitor strength toward CYP3A4 activity (in words) (CYP3A4 [3]) | slope of CYP1A2 inhibition-log concentration (or dilution volume) curve (CYP1A2 [2]; Fig. 5) | inhibitor strength toward rat liver microsomal CYP1A1/2 activity (in words) (CYP1A1/2) |
| --- | --- | --- | --- | --- | --- | --- | --- | --- | --- |
| COc1cc(O)c2c(c1)C(=O)c1cc(C)cc(O)c1C2=O [Physcion] | 0.43 µg/mL (≈ 1.51 µM) | 0.98 unitless | potent inhibitors | < 0.04 unitless | > 220 µM | – | – | – | – |
| O=C(O)c1cc(O)c2c(c1)[C@H]([C@H]1c3cc(C(=O)O)cc(O)c3C(=O)c3c(O[C@@H]4O[C@H](CO)[C@@H](O)[C@H](O)[C@H]4O)cccc31)c1cccc(O[C@@H]3O[C@H](CO)[C@@H](O)[C@H](O)[C@H]3O)c1C2=O [Sennoside A] | – | – | weak inhibitor | – | – | > 155 µM | weak inhibitor | – | – |
| O=C1c2cccc(O)c2C(=O)c2c(O)cc(CO)cc21 [Aloe-emodin] | – | 1.00 unitless | potent inhibitors | 1.00 unitless | 8.29 µM | 1.55 µM | moderate inhibitors | 1.74 | – |
| O=C(O)c1cc(O)c2c(c1)C(=O)c1cccc(O)c1C2=O [Rhein] | – | 0.68 unitless | potent inhibitors | 0.08 unitless | 97.6 µM | 2.18 µM | weak inhibitors | – | – |
| O=C1c2ccc(O)cc2C(=O)c2ccc(O)cc21 [2,6-dihydroxyanthraquinone] | – | – | – | – | – | – | – | – | potent inhibitor |
| Cc1cc(O)c2c(c1)C(=O)c1cc(O)cc(O)c1C2=O [Emodin] | – | 0.02 unitless | weak CYP1A2 inhibitor | 0.55 unitless | 15.2 µM | 67 µM | moderate inhibitors | – | – |
| O=C(O)c1cc(O)c2c(c1)[C@@H]([C@H]1c3cc(C(=O)O)cc(O)c3C(=O)c3c(O[C@@H]4O[C@H](CO)[C@@H](O)[C@H](O)[C@H]4O)cccc31)c1cccc(O[C@@H]3O[C@H](CO)[C@@H](O)[C@H](O)[C@H]3O)c1C2=O [Sennoside B] | – | – | moderate inhibitor | – | – | 33.1 µM | moderate inhibitor | – | – |
| Cc1cc(O)c2c(c1)C(=O)c1cccc(O)c1C2=O [Chrysophanol] | – | – | potent inhibitors | – | – | 1.73 µM | – | – | – |
